Experimental data from US6825170B2, “6-O-acyl ketolide antibacterials” (Ortho-McNeil Pharmaceutical, Inc., priority 2001, dated 2004).
Converted amounts (≈) assume the structure as drawn.

Key:
Assay in all cases: MIC, microdilution broth method (NCCLS)
Format in all cases: cell-based
Settings in all cases: 35° C., 16-20 hours
S. pneumoniae ATCC49619 = test system: S. pneumoniae ATCC49619
In short: (§1)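 Broth microdilution per NCCLS M7-A4 used two-fold compound dilutions in cation-adjusted Mueller-Hinton broth, inoculated at about 5×10^4 CFU/well. Trays were incubated at 35 °C for 16-20 h, and growth was compared with compound-free growth-control wells.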

S. aureus ATCC29213 = test system: S. aureus ATCC29213
In short: as §1

H. influenzae ATCC49247 = test system: H. influenzae ATCC49247
In short: as §1

E. faecalis ATCC29212 = test system: E. faecalis ATCC29212
In short: as §1

E. coli OC2605 = test system: E. coli OC2605
In short: as §1

Compound	MIC (D: S. pneumoniae ATCC49619) (S. pneumoniae ATCC49619) [µg/mL]	MIC (B: S. aureus ATCC29213) (S. aureus ATCC29213) [µg/mL]	MIC (E: H. influenzae ATCC49247) (H. influenzae ATCC49247) [µg/mL]	MIC (C: E. faecalis ATCC29212) (E. faecalis ATCC29212) [µg/mL]	MIC (A: E. coli OC2605) (E. coli OC2605) [µg/mL]
CCC1OC(=O)C(C)C(=O)C(C)C(OC2OC(C)CC(N(C)C)C2O)C(C)(OC(=O)n2cccc2)CC(C)C(=O)C(C)C2NC(=O)OC12C (stereo not shown) [Compound 2]	0.5 (≈ 0.723 µM)	>16	>16	8 (≈ 11.6 µM)	>16
CCC1OC(=O)C(C)C(=O)C(C)C(OC2OC(C)CC(N(C)C)C2O)C(C)(OC(=O)n2ccc(C=O)c2)CC(C)C(=O)C(C)C2NC(=O)OC12C (stereo not shown) [Compound 3]	1 (≈ 1.39 µM)	>16	>16	4 (≈ 5.56 µM)	>16
CCC1OC(=O)C(C)C(=O)C(C)C(OC2OC(C)CC(N(C)C)C2O)C(C)(OC(=O)n2ccc(C#N)c2)CC(C)C(=O)C(C)C2NC(=O)OC12C (stereo not shown) [Compound 4]	1 (≈ 1.4 µM)	>16	>16	4 (≈ 5.58 µM)	>16
CCC1OC(=O)C(C)C(=O)C(C)C(OC2OC(C)CC(N(C)C)C2O)C(C)(OC(=O)NN)CC(C)C(=O)C(C)C2NC(=O)OC12C (stereo not shown) [Compound 5]	0.5 (≈ 0.761 µM)	16 (≈ 24.4 µM)	8 (≈ 12.2 µM)	4 (≈ 6.09 µM)	>16
CCC1OC(=O)C(C)C(=O)C(C)C(OC2OC(C)CC(N(C)C)C2O)C(C)(OC(=O)OCC=Cc2ccccc2)CC(C)C(=O)C(C)C2NC(=O)OC12C (stereo not shown) [Compound 6]	0.03 (≈ 0.0395 µM)	0.12 (≈ 0.158 µM)	1 (≈ 1.32 µM)	0.12 (≈ 0.158 µM)	16 (≈ 21.1 µM)
CC[C@H]1OC(=O)[C@H](C)C(=O)[C@H](C)[C@@H](O[C@@H]2O[C@H](C)C[C@H](N(C)C)[C@H]2O)[C@](C)(OC(=O)NN=CCc2ccc(-c3ncccn3)cc2)C[C@@H](C)C(=O)[C@H](C)[C@H]2NC(=O)O[C@@]21C [Compound 826]	0.25 (≈ 0.299 µM)	8 (≈ 9.56 µM)	8 (≈ 9.56 µM)	2 (≈ 2.39 µM)	
CC[C@H]1OC(=O)[C@H](C)C(=O)[C@H](C)[C@@H](O[C@@H]2O[C@H](C)C[C@H](N(C)C)[C@H]2O)[C@](C)(OC(=O)NN=C/C=C/c2ccc(-c3ncccn3)cc2)C[C@@H](C)C(=O)[C@H](C)[C@H]2NC(=O)O[C@@]21C [Compound 827]	0.12 (≈ 0.141 µM)	1 (≈ 1.18 µM)	8 (≈ 9.42 µM)	1 (≈ 1.18 µM)	
CC[C@H]1OC(=O)[C@H](C)C(=O)[C@H](C)[C@@H](O[C@@H]2O[C@H](C)C[C@H](N(C)C)[C@H]2O)[C@](C)(OC(=O)SC/C=C/c2ccccc2)C[C@@H](C)C(=O)[C@H](C)[C@H]2NC(=O)O[C@@]21C [Compound 830]	0.12 (≈ 0.155 µM)	1 (≈ 1.29 µM)	4 (≈ 5.16 µM)	0.5 (≈ 0.645 µM)	
CC[C@H]1OC(=O)[C@H](C)C(=O)[C@H](C)[C@@H](O[C@@H]2O[C@H](C)C[C@H](N(C)C)[C@H]2O)[C@](C)(OC(=O)SCc2ccccc2)C[C@@H](C)C(=O)[C@H](C)[C@H]2NC(=O)O[C@@]21C [Compound 831]	0.06 (≈ 0.0801 µM)	2 (≈ 2.67 µM)	8 (≈ 10.7 µM)	0.25 (≈ 0.334 µM)	
C=CCSC(=O)O[C@]1(C)C[C@@H](C)C(=O)[C@H](C)[C@H]2NC(=O)O[C@]2(C)[C@@H](CC)OC(=O)[C@H](C)C(=O)[C@H](C)[C@H]1O[C@@H]1O[C@H](C)C[C@H](N(C)C)[C@H]1O [Compound 832]	0.25 (≈ 0.358 µM)	4 (≈ 5.72 µM)	8 (≈ 11.4 µM)	0.5 (≈ 0.715 µM)	
CC[C@H]1OC(=O)[C@H](C)C(=O)[C@H](C)[C@@H](O[C@@H]2O[C@H](C)C[C@H](N(C)C)[C@H]2O)[C@](C)(OC(=O)SC/C=C/c2ccc(-c3ncccn3)cc2)C[C@@H](C)C(=O)[C@H](C)[C@H]2NC(=O)O[C@@]21C [Compound 833]	0.06 (≈ 0.0703 µM)	0.5 (≈ 0.586 µM)	16 (≈ 18.8 µM)	0.25 (≈ 0.293 µM)	
CC[C@H]1OC(=O)[C@H](C)C(=O)[C@H](C)[C@@H](O[C@@H]2O[C@H](C)C[C@H](N(C)C)[C@H]2O)[C@](C)(OC(=O)SCc2ccc(-c3ncccn3)cc2)C[C@@H](C)C(=O)[C@H](C)[C@H]2NC(=O)O[C@@]21C [Compound 834]	<0.015	0.5 (≈ 0.605 µM)	8 (≈ 9.67 µM)	0.12 (≈ 0.145 µM)	
CC[C@H]1OC(=O)[C@H](C)C(=O)[C@H](C)[C@@H](O[C@@H]2O[C@H](C)C[C@H](N(C)C)[C@H]2O)[C@](C)(OC(=O)SCCc2ccc(-c3ncccn3)cc2)C[C@@H](C)C(=O)[C@H](C)[C@H]2NC(=O)O[C@@]21C [Compound 835]	0.03 (≈ 0.0357 µM)	0.5 (≈ 0.595 µM)	4 (≈ 4.76 µM)	0.12 (≈ 0.143 µM)	
CC[C@H]1OC(=O)[C@H](C)C(=O)[C@H](C)[C@@H](O[C@@H]2O[C@H](C)C[C@H](N(C)C)[C@H]2O)[C@](C)(OC(=O)SCCc2ccc(-n3cncn3)cc2)C[C@@H](C)C(=O)[C@H](C)[C@H]2NC(=O)O[C@@]21C [Compound 836]	0.03 (≈ 0.0361 µM)	0.25 (≈ 0.301 µM)	1 (≈ 1.2 µM)	0.12 (≈ 0.145 µM)	
CC[C@H]1OC(=O)[C@H](C)C(=O)[C@H](C)[C@@H](O[C@@H]2O[C@H](C)C[C@H](N(C)C)[C@H]2O)[C@](C)(OC(=O)SC/C=C/c2cnc3ccccc3c2)C[C@@H](C)C(=O)[C@H](C)[C@H]2NC(=O)O[C@@]21C [Compound 837]	0.12 (≈ 0.145 µM)	2 (≈ 2.42 µM)	8 (≈ 9.68 µM)	0.25 (≈ 0.303 µM)	
CC[C@H]1OC(=O)[C@H](C)C(=O)[C@H](C)[C@@H](O[C@@H]2O[C@H](C)C[C@H](N(C)C)[C@H]2O)[C@](C)(OC(=O)SCc2cnc3ccccc3c2)C[C@@H](C)C(=O)[C@H](C)[C@H]2NC(=O)O[C@@]21C [Compound 838]	0.06 (≈ 0.075 µM)	0.25 (≈ 0.313 µM)	1 (≈ 1.25 µM)	0.12 (≈ 0.15 µM)	
CC[C@H]1OC(=O)[C@H](C)C(=O)[C@H](C)[C@@H](O[C@@H]2O[C@H](C)C[C@H](N(C)C)[C@H]2O)[C@](C)(OC(=O)SCc2ccc(-c3ccccn3)s2)C[C@@H](C)C(=O)[C@H](C)[C@H]2NC(=O)O[C@@]21C [Compound 839]	0.06 (≈ 0.0721 µM)	1 (≈ 1.2 µM)	2 (≈ 2.4 µM)	0.12 (≈ 0.144 µM)	
CC[C@H]1OC(=O)[C@H](C)C(=O)[C@H](C)[C@@H](O[C@@H]2O[C@H](C)C[C@H](N(C)C)[C@H]2O)[C@](C)(OC(=O)SCc2ccc(-n3cncn3)cc2)C[C@@H](C)C(=O)[C@H](C)[C@H]2NC(=O)O[C@@]21C [Compound 840]	0.06 (≈ 0.0735 µM)	0.5 (≈ 0.613 µM)	2 (≈ 2.45 µM)	0.12 (≈ 0.147 µM)	
CC[C@H]1OC(=O)[C@H](C)C(=O)[C@H](C)[C@@H](O[C@@H]2O[C@H](C)C[C@H](N(C)C)[C@H]2O)[C@](C)(OC(=O)SCc2cn(-c3ncccn3)cn2)C[C@@H](C)C(=O)[C@H](C)[C@H]2NC(=O)O[C@@]21C [Compound 841]	0.03 (≈ 0.0367 µM)	0.5 (≈ 0.612 µM)	2 (≈ 2.45 µM)	0.12 (≈ 0.147 µM)	
CC[C@H]1OC(=O)[C@H](C)C(=O)[C@H](C)[C@@H](O[C@@H]2O[C@H](C)C[C@H](N(C)C)[C@H]2O)[C@](C)(OC(=O)Cc2ccccc2)C[C@@H](C)C(=O)[C@H](C)[C@H]2NC(=O)O[C@@]21C [Compound 843]	0.5 (≈ 0.697 µM)	8 (≈ 11.2 µM)	16 (≈ 22.3 µM)	2 (≈ 2.79 µM)	
CC[C@H]1OC(=O)[C@H](C)C(=O)[C@H](C)[C@@H](O[C@@H]2O[C@H](C)C[C@H](N(C)C)[C@H]2O)[C@](C)(OC(=O)CCCc2ccccc2)C[C@@H](C)C(=O)[C@H](C)[C@H]2NC(=O)O[C@@]21C [Compound 844]	0.03 (≈ 0.0403 µM)	0.5 (≈ 0.671 µM)	4 (≈ 5.37 µM)	0.12 (≈ 0.161 µM)	
CC[C@H]1OC(=O)[C@H](C)C(=O)[C@H](C)[C@@H](O[C@@H]2O[C@H](C)C[C@H](N(C)C)[C@H]2O)[C@](C)(OC(=O)n2ccc(C(=N)Cc3ccccc3)c2)C[C@@H](C)C(=O)[C@H](C)[C@H]2NC(=O)O[C@@]21C [Compound 845]	4 (≈ 4.94 µM)	>16	>16	>16	
CCC1OC(=O)C(C)C(=O)C(C)C(OC2OC(C)CC(N(C)C)C2O)C(C)(OC(=O)n2ccc(C(=N)CCCc3ccccc3)c2)CC(C)C(=O)C(C)C2NC(=O)OC12C (stereo not shown) [Compound 846]	0.25 (≈ 0.299 µM)	8 (≈ 9.56 µM)	2 (≈ 2.39 µM)	1 (≈ 1.19 µM)	
